In article PMC12376128, “In vitro and In Vivo Drug Metabolism Analysis of BPI-460372 - A Covalent TEAD1/3/4 Inhibitor” (Current Drug Metabolism, 2025):

What was measured:
CYP2C19 = experiment: Metabolic stability in HLMs with or without specific CYP inhibitor (ticlopidine 200 µM); format: in vitro ADME, human; conditions: HLMs 1 mg protein/mL, substrate 1 μM
Procedure: Before starting the experiments, the HLMs were thawed gently on ice. Metabolic stability incubations were performed at 37 °C. […] The incubation process started with the addition of NADPH (1 mM final concentration) after a 5-minute preincubation period. The chemical inhibitors were as follows: a-naphthoflavone (2 µM) for CYP1A2, ticlopidine (20 µM) for 2B6, quercetin (20 µM) for CYP2C8, sulfaphenazole (20 µM) for CYP2C9, ticlopidine (200 µM) for CYP2C19, quinidine (20 µM) for CYP2D6, and ketoconazole (20 µM) for CYP3A [9]. Aliquots were maintained in acetonitrile containing internal standard (IS) at various time points, such as 0 min, 5 min, 10 min, 20 min, 30 min, and 60 min. All incubations were performed in triplicate, and the concentration in the supernatant was determined by liquid chromatography-tandem mass spectrometry (LC-MS/MS).
(§1) The elimination rate constant k (min^-1) was obtained by linear regression from the natural logarithm of the […] of the parent drug and the incubation time. The inhibition rate was calculated using equation 1 [10]: […]

[1] = Metabolite identification in dog plasma; format: in vivo, beagle dogs; conditions: oral 8 mg/kg BPI-460372, average of male and female pooled samples
Outline: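 Pooled sex-specific samples from SD rats: plasma after 12 mg/kg, urine, feces and bile (collected over 0-48 h) after 6 mg/kg; beagle dog plasma after 8 mg/kg. Acetonitrile extraction (urine centrifuged only), dried, redissolved in acetonitrile/water 20:80, analysed by UHPLC-Orbitrap-HRMS.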

Stability in plasma = format: in vitro ADME; conditions: human plasma, 37°C, 4 h
TEAD palmitoylation = system: TEAD palmitoylation; design: method as in doi:10.1158/1538-7445.AM2023-501; conditions: cited from earlier work
human hepatocytes = experiment: Metabolism and metabolite formation in hepatocytes; conditions: human hepatocytes, 10 µM BPI-460372, 4 h incubation
Procedure: 10 µM BPI-460372 was incubated in five species (human, cynomolgus monkey, beagle dog, SD rat, and ICR mouse) hepatocytes (1 × 10^6 cells·min^-1) at 37 °C for 4 h. 7-EC, as positive control, was incubated for 0 h and 4 h. For blank control, hepatocytes were inactivated by adding ice-cold acetonitrile, and then the BPI-460372 solution was added. All the samples were duplicates. Incubations were stopped using the same volume of cold acetonitrile. The tube was vortexed, and the duplicate samples were combined. Metabolite profiling and identification of BPI-460372 were conducted by using UHPLC-Orbitrap-HRMS. The samples of 7-EC were analyzed by LC-MS/MS and then semi-quantified using the peak area ratio of analyte versus IS.
For hepatocyte metabolite identification, the different metabolites of BPI-460372 were detected using an ACQUITY UPLC HSS T3 column (1.8 µm, 100 mm × 2.1 mm) and ACQUITY UPLC BEH C18 column (1.7 µm, 100 mm × 2.1 mm) for rat and dog metabolite identification. The mobile phase contained a mixture of 0.1% formic acid in water (A) and 0.1% formic acid in acetonitrile (B). The gradient elution program was as follows: 0.0-1.0 min, 5% B; 1.0-7.0 min, 5%-30% B; 7.0-12.0 min, 30%-80% B; 12.0-16.0 min, 80%-95% B; 16.0-18.0 min, 95% B; 18.0-18.1 min, 95%-5% B. Then, 5% B from 18.1 to 20.0 min was maintained for equilibration. The flow rate was set to 0.5 mL/min, and the column temperature was kept at 40°C. Eluted fractions were monitored by a UV detector at 314 nm.

CYP1A2 = molecular target: T1, CYP1A2 (Homo sapiens, UniProt P05177); experiment: Metabolic stability in HLMs with or without specific CYP inhibitor (α-naphthoflavone); format: in vitro ADME; design: HLMs (1 mg protein·mL^-1); tissue BioIVT; host or cells: pooled human liver microsomes; conditions: HLMs 1 mg protein/mL, substrate 1 μM, α-naphthoflavone 2 µM
T1 sequence (P05177 1-516): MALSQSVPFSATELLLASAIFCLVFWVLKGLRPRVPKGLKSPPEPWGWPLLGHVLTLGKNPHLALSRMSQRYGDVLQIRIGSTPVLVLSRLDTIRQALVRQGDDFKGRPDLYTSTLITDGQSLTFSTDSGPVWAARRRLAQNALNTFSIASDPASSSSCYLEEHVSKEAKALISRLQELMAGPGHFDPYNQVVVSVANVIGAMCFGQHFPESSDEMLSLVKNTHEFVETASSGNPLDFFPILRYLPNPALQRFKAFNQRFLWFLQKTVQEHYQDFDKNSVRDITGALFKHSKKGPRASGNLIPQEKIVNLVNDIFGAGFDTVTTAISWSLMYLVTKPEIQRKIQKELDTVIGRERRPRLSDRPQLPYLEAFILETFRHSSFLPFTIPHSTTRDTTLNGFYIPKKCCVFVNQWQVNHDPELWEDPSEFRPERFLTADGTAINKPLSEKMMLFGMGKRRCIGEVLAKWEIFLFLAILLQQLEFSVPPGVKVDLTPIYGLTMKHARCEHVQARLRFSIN
Procedure: Before starting the experiments, the HLMs were thawed gently on ice. Metabolic stability incubations were performed at 37 °C. The incubations contained 100 mM phosphate buffer saline (PBS, pH 7.4), HLMs (1 mg protein·mL^-1), dimethyl sulfoxide (DMSO, blank control) or a selective CYP inhibitor, and BPI-460372 or positive control substrates (final incubation concentration, 1 μM). The incubation process started with the addition of NADPH (1 mM final concentration) after a 5-minute preincubation period. The chemical inhibitors were as follows: a-naphthoflavone (2 µM) for CYP1A2, ticlopidine (20 µM) for 2B6, quercetin (20 µM) for CYP2C8, sulfaphenazole (20 µM) for CYP2C9, ticlopidine (200 µM) for CYP2C19, quinidine (20 µM) for CYP2D6, and ketoconazole (20 µM) for CYP3A [9]. Aliquots were maintained in acetonitrile containing internal standard (IS) at various time points, such as 0 min, 5 min, 10 min, 20 min, 30 min, and 60 min. All incubations were performed in triplicate, and the concentration in the supernatant was determined by liquid chromatography-tandem mass spectrometry (LC-MS/MS).
as §1

C=C(F)C(=O)N1CC(n2c(=O)n(-c3ccc(C(F)(F)F)cc3)c3nccnc32)C1 [BPI-460372]
Inhibition Rate (CYP2C19): -4.2% | Relative abundance of MS peak areas, Dog Plasma 0-48 h [1]: 30.93% | Stability in plasma (Stability in plasma): stable | Inhibition of the palmitoylation of TEADs (TEAD palmitoylation): inhibit the palmitoylation | UV (314 nm) Peak Areas Relative Abundance (human hepatocytes): 76.96% | Inhibition Rate (CYP1A2): 32.7%
